Legend:
Assay in all cases: biochemical
[1] = target: Polybromodomain-1 BromoDomain-5 (PB1-BD5) (Homo sapiens, UniProt Q86U86)
Description: IC50 measurements for inhibitors using Polybromodomain-1 BromoDomain-5 (PB1-BD5) SM TR-FRET Binding Assay

[2] = target: BRM (Isoform 2) Bromodomain (Homo sapiens, UniProt P51531)
Description: IC50 measurements for inhibitors using BRM SM TR-FRET Binding Assay

BRG1 = BRG1 (Homo sapiens, UniProt P51532); assay type: binding; details: BRG1 HTRF IC50 (µM)
Description: IC50 measurements for inhibitors using BRG1 TR-FRET Binding Assay

Chain of BRM (Isoform 2) Bromodomain (P51531 1377-1486 isoform P51531-2): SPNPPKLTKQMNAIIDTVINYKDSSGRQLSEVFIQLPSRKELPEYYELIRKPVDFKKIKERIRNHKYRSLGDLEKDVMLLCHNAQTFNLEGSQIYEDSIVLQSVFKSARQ
Chain of Polybromodomain-1 BromoDomain-5 (PB1-BD5) (Q86U86 645-766): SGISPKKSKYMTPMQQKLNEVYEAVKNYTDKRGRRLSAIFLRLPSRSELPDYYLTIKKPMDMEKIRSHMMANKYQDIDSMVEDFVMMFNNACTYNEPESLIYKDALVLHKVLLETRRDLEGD
Chain of BRG1 (P51532 1448-1575): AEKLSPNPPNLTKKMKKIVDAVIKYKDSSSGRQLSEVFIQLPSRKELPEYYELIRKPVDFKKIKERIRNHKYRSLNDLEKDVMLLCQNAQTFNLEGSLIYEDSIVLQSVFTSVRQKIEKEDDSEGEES

For CC1CN(c2cc(-c3ccccc3O)nnc2N)CC(C)O1 (racemic) [Example 33, 2-(6-amino-5-(2,6-dimethylmorpholino)pyridazin-3-yl)phenol], the IC50 [1] was 24 nM and the IC50 [2] was 69.6 nM.
In the case of Nc1nnc(-c2ccccc2O)cc1N1CCN(Cc2cccnc2)CC1 [Example 3, 2-(6-amino-5-(4-(pyridin-3-ylmethyl)piperazin-1-yl)pyridazin-3-yl)phenol], the IC50 (BRG1) is reported as 0.0373 µM and the IC50 [1] is reported as 25.2 nM.
In the case of CC(=O)N1CCN(c2cc(-c3ccccc3O)nnc2N)CC1 [Example 4, 1-(4-(3-amino-6-(2-hydroxyphenyl)pyridazin-4-yl)piperazin-1-yl)ethan-1-one], the IC50 (BRG1) is reported as 0.0659 µM, the IC50 [1] is reported as 24.6 nM and the IC50 [2] is reported as 71.7 nM.
CN(C)CC1CCN(c2cc(-c3ccccc3O)nnc2N)CC1 [Example 5, 2-(6-amino-5-(4-((dimethylamino)methyl)piperidin-1-yl)pyridazin-3-yl)phenol] was tested, and the IC50 (BRG1) was 0.0395 µM and the IC50 [2] was 22.5 nM.
Work on Nc1nnc(-c2ccccc2O)cc1N1C[C@H]2CN(Cc3ccccc3)C[C@H]2C1 [Example 9, 2-(6-amino-5-((3aR,6aS)-5-benzylhexahydropyrrolo[3,4-c]pyrrol-2(1H)-yl)pyridazin-3-yl)phenol] yielded an IC50 (BRG1) of 0.0615 µM, an IC50 [1] of 18.2 nM and an IC50 [2] of 47.6 nM.
CC(c1ccccc1)N1CCN(c2cc(-c3ccccc3O)nnc2N)CC1 (stereo not drawn) [Example 15, 2-(6-amino-5-(4-(1-phenylethyl)piperazin-1 - yl)pyridazin-3-yl)phenol] was tested, and the IC50 [1] was 24.5 nM and the IC50 [2] was 36.1 nM.
For Nc1nnc(-c2ccccc2O)cc1N1CC2CCC(C1)N2Cc1ccccc1 [Example 16, 2-(6-amino-5-(8-benzyl-3,8-diazabicyclo[3.2.1]octan-3-yl)pyridazin-3-yl)phenol], the IC50 (BRG1) was 0.0563 µM, the IC50 [1] was 51.3 nM and the IC50 [2] was 79 nM.
With Nc1nnc(-c2ccccc2O)cc1N1CCOCC1 [Example 45, 2-(6-amino-5-morpholinopyridazin-3-yl)phenol] the IC50 (BRG1) was 0.101 µM, the IC50 [1] was 20.9 nM and the IC50 [2] was 71.5 nM.
Nc1nnc(-c2ccccc2O)cc1N1CC(Oc2ccccc2)C1 [Example 57, 2-(6-amino-5-(3-phenoxyazetidin-1-yl)pyridazin-3-yl)phenol] was tested, and the IC50 (BRG1) was 0.0177 µM and the IC50 [2] was 35.6 nM.
In the case of CS(=O)(=O)N1CCN(c2cc(-c3ccccc3O)nnc2N)CC1Cc1ccccc1 (stereo not drawn) [Example 119, 2-(6-amino-5-(3-benzyl-4-(methylsulfonyl)piperazin-1-yl)pyridazin-3-yl)phenol], the IC50 (BRG1) is reported as 0.0385 µM and the IC50 [1] is reported as 23.3 nM.
Work on CC1CN(c2cc(-c3ccccc3O)nnc2N)CCN1C(=O)C(C)(C)C (stereo not drawn) [Example 129, 1-(4-(3-amino-6-(2-hydroxyphenyl)pyridazin-4-yl)-2-methylpiperazin-1-yl)-2,2-dimethylpropan-1-one] yielded an IC50 (BRG1) of 0.0104 µM, an IC50 [1] of 6.8 nM and an IC50 [2] of 18.4 nM.
CC(Oc1cc(-c2ccccc2O)nnc1N)C1CCOCC1 (stereo not drawn) [Example 168, 2-(6-amino-5-(1-(tetrahydro-2H-pyran-4-yl)ethoxy)pyridazin-3-yl)phenol] showed an IC50 (BRG1) of 0.169 µM, an IC50 [1] of 113 nM and an IC50 [2] of 197 nM.
With C[C@H](Oc1cc(-c2ccccc2O)nnc1N)c1ccccc1 [Example 170, (S)-2-(6-amino-5-(1-phenylethoxy)pyridazin-3-yl)phenol] the IC50 [1] was 9.6 nM and the IC50 [2] was 14.9 nM.
CN(C)CCOc1cc(-c2ccccc2O)nnc1N [Example 173, 2-(6-amino-5-(2-(dimethylamino)ethoxy)pyridazin-3-yl)phenol] gave an IC50 (BRG1) of 0.263 µM, an IC50 [1] of 257 nM and an IC50 [2] of 276 nM.
In the case of Nc1nnc(-c2ccccc2O)cc1OCCc1ccccc1 [Example 174, 2-(6-amino-5-phenethoxypyridazin-3-yl)phenol], the IC50 (BRG1) is reported as 0.0148 µM, the IC50 [1] is reported as 8.8 nM and the IC50 [2] is reported as 19 nM.
CC(Cc1ccccc1)Oc1cc(-c2ccccc2O)nnc1N (stereo not drawn) [Example 177, 2-(6-amino-5-((1-phenylpropan-2-yl)oxy)pyridazin-3-yl)phenol] showed an IC50 (BRG1) of 0.1 µM, an IC50 [1] of 29.2 nM and an IC50 [2] of 92.5 nM.
Compound CC(COc1cc(-c2ccccc2O)nnc1N)c1ccccc1 (stereo not drawn) [Example 178, 2-(6-amino-5-(2-phenylpropoxy)pyridazin-3-yl)phenol] has an IC50 (BRG1) of 0.0122 µM, an IC50 [1] of 5.3 nM and an IC50 [2] of 7.2 nM.
Nc1nnc(-c2ccccc2O)cc1OC1CCN(Cc2ccccc2)C1 (stereo not drawn) [Example 180, 2-(6-amino-5-((1-benzylpyrrolidin-3-yl)oxy)pyridazin-3-yl)phenol] showed an IC50 (BRG1) of 0.0432 µM, an IC50 [1] of 43.9 nM and an IC50 [2] of 59.7 nM.
In the case of Cn1cc(-c2cc(-c3ccccc3O)nnc2N)cn1 [Example 187, 2-(6-amino-5-(1-methyl-1H-pyrazol-4-yl)pyridazin-3-yl)phenol], the IC50 [1] is reported as 3.7 nM and the IC50 [2] is reported as 10 nM.
With CC(c1ccccc1)n1cc(-c2cc(-c3ccccc3O)nnc2N)cn1 (stereo not drawn) [Example 188, 2-(6-amino-5-(1-(1-phenylethyl)-1H-pyrazol-4-yl)pyridazin-3-yl)phenol] the IC50 [1] was 2.5 nM and the IC50 [2] was 5.7 nM.
With CN(C)Cc1ccc(-c2cc(-c3ccccc3O)nnc2N)cc1 [Example 189, 2-(6-amino-5-(4-((dimethylamino)methyl)phenyl)pyridazin-3-yl)phenol] the IC50 (BRG1) was 0.0222 µM, the IC50 [1] was 28.8 nM and the IC50 [2] was 49.3 nM.
For CNc1ccc(-c2ccccc2O)nn1 [Example 204, 2-(6-(methylamino)pyridazin-3-yl)phenol], the IC50 (BRG1) was 0.893 µM, the IC50 [1] was 349 nM and the IC50 [2] was 1040 nM.
Nc1nnc(-c2ccccc2O)cc1C1CCCC1 [Example 210, 2-(6-amino-5-cyclopentylpyridazin-3-yl)phenol] was tested, and the IC50 (BRG1) was 0.0239 µM, the IC50 [1] was 14.9 nM and the IC50 [2] was 25 nM.
For Nc1nnc(-c2ccccc2O)cc1C1CCN(S(=O)(=O)c2ccccc2)C1 (stereo not drawn) [Example 217, 2-(6-amino-5-(1-(phenylsulfonyl)pyrrolidin-3-yl)pyridazin-3-yl)phenol], the IC50 (BRG1) was 0.412 µM, the IC50 [1] was 268 nM and the IC50 [2] was 466 nM.
For Nc1nnc(-c2ccccc2O)cc1C1CCN(Cc2ccccc2)CC1 [Example 218, 2-(6-amino-5-(1-benzylpiperidin-4-yl)pyridazin-3-yl)phenol], the IC50 (BRG1) was 0.0553 µM and the IC50 [1] was 44.8 nM.
CC(=O)N1CCCC(Oc2cc(-c3ccccc3O)nnc2N)C1 (stereo not drawn) [Example 247, 1-(3-((3-amino-6-(2-hydroxyphenyl)pyridazin-4-yl)oxy)piperidin-1-yl)ethanone] showed an IC50 (BRG1) of 0.137 µM.
